Assay results taken from the supplement of paper PMC11061612.

Columns and labels:
Test in all cases: combination Emax (second highest fraction inhibited in the dose matrix, 72 h); higher = more inhibition; extreme values may be limits of the assay
[1] = system: JHH-2 (Hepatocellular Carcinoma)
Summary of the method: (§1)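 After 24 hours at 37°C and 5% CO2 in 1536-well plates, cells in DMEM/F12 or RPMI plus 10% FBS received two-drug dose matrices for 72 hours. Viability came from CellTiter-Glo 2.0 luminescence and was scaled as inhibition, anchored at 0 by vehicle wells and at 1 by blank wells. Combination Emax is taken as the second-highest inhibition in the matrix, and Bliss excess as the observed combination effect less EA + EB − EA·EB, with EA and EB the single-agent effects.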

[2] = system: 22RV1 (Prostate Carcinoma)
Summary of the method: as §1

EW-7 (Ewing's Sarcoma) = system: EW-7 (Ewing's Sarcoma)
Summary of the method: as §1

[3] = system: UACC-812 (Breast Carcinoma)
Summary of the method: as §1

[4] = system: NCI-H1651 (Lung Adenocarcinoma)
Summary of the method: as §1

[5] = system: NCI-H1703 (Squamous Cell Lung Carcinoma)
Summary of the method: as §1

[6] = system: MDA-MB-436 (Breast Carcinoma)
Summary of the method: as §1

PEO1 (Ovarian Carcinoma) = system: PEO1 (Ovarian Carcinoma)
Summary of the method: as §1

[7] = system: LU-165 (Small Cell Lung Carcinoma)
Summary of the method: as §1

[8] = system: A2780 (Ovarian Carcinoma)
Summary of the method: as §1

| SMILES | combination Emax [1] | combination Emax [2] | combination Emax (EW-7 (Ewing's Sarcoma)) | combination Emax [3] | combination Emax [4] | combination Emax [5] | combination Emax [6] | combination Emax (PEO1 (Ovarian Carcinoma)) | combination Emax [7] | combination Emax [8] |
| --- | --- | --- | --- | --- | --- | --- | --- | --- | --- | --- |
| C=CCn1c(=O)c2cnc(Nc3ccc(N4CCN(C)CC4)cc3)nc2n1-c1cccc(C(C)(C)O)n1 [AZD1775] + CCc1c2c(nc3ccc(O)cc13)-c1cc3c(c(=O)n1C2)COC(=O)[C@]3(O)CC [SN-38] (first compound max 1 µM, partner max 0.3 µM) | 0.76 | 0.732 | 0.966 | 0.513 | 0.86 | 0.992 | 0.591 | 0.768 | 0.588 | 0.94 |
| C=CCn1c(=O)c2cnc(Nc3ccc(N4CCN(C)CC4)cc3)nc2n1-c1cccc(C(C)(C)O)n1 [AZD1775] + Nc1ccn([C@@H]2O[C@H](CO)[C@@H](O)C2(F)F)c(=O)n1 [Gemcitabine] (first compound max 1 µM, partner max 0.3 µM) | 0.735 | 0.744 | 1 | 0.626 | 0.762 | 0.984 | 0.608 | 0.65 | 0.508 | 0.963 |
| CN(CCO)CC[C@H](CSc1ccccc1)Nc1ccc(S(=O)(=O)NC(=O)c2ccc(N3CCC([C@@H](O)c4ccccc4-c4ccc(Cl)cc4)CC3)cc2)cc1S(=O)(=O)C(F)(F)F [AZD4320] + CS(=O)(=O)CCNCc1ccc(-c2ccc3ncnc(Nc4ccc(OCc5cccc(F)c5)c(Cl)c4)c3c2)o1 [Lapatinib] (first compound max 1 µM, 7x7, partner max 10 µM) | 0.778 | 0.335 | 0.979 | 0.616 | 0.396 | 0.862 | 0.256 | 0.829 | 0.943 | 0.492 |
| Cc1c2c(nn1C)CSCc1cc(n(C)n1)CSc1cc(c3ccccc3c1)OCCCc1c(C(=O)O)n(C)c3c-2c(Cl)ccc13 [AZD5991] + CC(=O)O[C@H]1C(=O)[C@@]2(C)[C@H]([C@H](OC(=O)c3ccccc3)[C@]3(O)C[C@H](OC(=O)[C@H](O)[C@@H](NC(=O)c4ccccc4)c4ccccc4)C(C)=C1C3(C)C)[C@]1(OC(C)=O)CO[C@@H]1C[C@@H]2O [Paclitaxel] (first compound max 1 µM, 7x7, partner max 3 µM) | 0.783 | 0.912 | 0.984 | 0.794 | 0.912 | 0.993 | 0.391 | 0.762 | 0.36 | 1 |
| Cc1c2c(nn1C)CSCc1cc(n(C)n1)CSc1cc(c3ccccc3c1)OCCCc1c(C(=O)O)n(C)c3c-2c(Cl)ccc13 [AZD5991] + CS(=O)(=O)CCNCc1ccc(-c2ccc3ncnc(Nc4ccc(OCc5cccc(F)c5)c(Cl)c4)c3c2)o1 [Lapatinib] (first compound max 1 µM, 7x7, partner max 10 µM) | 0.446 | 0.55 | 0.666 | 0.929 | 0.307 | 0.935 | 0.274 | 0.442 | 0.225 | 0.933 |
| Cc1c2c(nn1C)CSCc1cc(n(C)n1)CSc1cc(c3ccccc3c1)OCCCc1c(C(=O)O)n(C)c3c-2c(Cl)ccc13 [AZD5991] + Nc1ccn([C@@H]2O[C@H](CO)[C@@H](O)C2(F)F)c(=O)n1 [Gemcitabine] (first compound max 1 µM, 7x7, partner max 0.3 µM) | 0.483 | 0.886 | 1 | 0.755 | 0.486 | 0.954 | 0.56 | 0.544 | 0.423 | 1 |
| C[C@@H]1COCCN1c1cc(C2([S@](C)(=N)=O)CC2)nc(-c2ccnc3[nH]ccc23)n1 [AZD6738] + C1CC(C1)(C(=O)[O-])C(=O)[O-].N.N.[Pt+2] [Carboplatin] (first compound max 10 µM, 7x7, partner max 10 µM) | 0.507 | 0.553 | 0.936 | 0.381 | 0.641 | 0.932 | 0.266 | 0.675 | 0.41 | 0.81 |
| C[C@@H]1COCCN1c1cc(C2([S@](C)(=N)=O)CC2)nc(-c2ccnc3[nH]ccc23)n1 [AZD6738] + Nc1ccn([C@@H]2O[C@H](CO)[C@@H](O)C2(F)F)c(=O)n1 [Gemcitabine] (first compound max 10 µM, 7x7, partner max 0.3 µM) | 0.716 | 0.754 | 1 | 0.66 | 0.747 | 0.954 | 0.621 | 0.696 | 0.551 | 0.95 |
| C[C@@H](Nc1cc(F)cc(F)c1)c1cc(C(=O)N(C)C)cc2c(=O)cc(N3CCOCC3)oc12 [AZD8186] + C1CN(CCC1(C(=O)N[C@@H](CCO)C2=CC=C(C=C2)Cl)N)C3=NC=NC4=C3C=CN4 [AZD5363] (first compound max 10 µM, 7x7, partner max 10 µM) | 0.716 | 0.546 | 0.678 | 0.333 | 0.112 | 0.635 | 0.449 | 0.351 | 0.375 | 0.784 |
| C[C@@H](Nc1cc(F)cc(F)c1)c1cc(C(=O)N(C)C)cc2c(=O)cc(N3CCOCC3)oc12 [AZD8186] + CC(=O)c1c(C)c2cnc(Nc3ccc(N4CCNCC4)cn3)nc2n(C2CCCC2)c1=O [Palbociclib] (first compound max 10 µM, 7x7, partner max 10 µM) | 0.693 | 0.563 | 0.509 | 0.389 | 0.17 | 0.643 | 0.472 | 0.454 | 0.31 | 0.835 |
| C[C@@H](Oc1cc(-c2cnn(C3CCNCC3)c2)cnc1N)c1c(Cl)ccc(F)c1Cl [Crizotinib] + CC1=C(C(=CC=C1)Cl)NC(=O)C2=CN=C(S2)NC3=CC(=NC(=N3)C)N4CCN(CC4)CCO [Dasatinib] (first compound max 10 µM, 7x7, partner max 2 µM) | 0.883 | 0.468 | 0.945 | 0.181 | 0.29 | 0.799 | 0.3 | 0.532 | 0.469 | 0.882 |
| C[C@@H](Oc1cc(-c2cnn(C3CCNCC3)c2)cnc1N)c1c(Cl)ccc(F)c1Cl [Crizotinib] + Cn1cnc2c(F)c(Nc3ccc(Br)cc3Cl)c(C(=O)NOCCO)cc21 [Selumetinib] (first compound max 10 µM, 7x7, partner max 10 µM) | 0.598 | 0.59 | 0.929 | 0.154 | 0.0815 | 0.535 | 0.292 | 0.297 | 0.279 | 0.922 |
| CS(=O)(=O)CCNCc1ccc(-c2ccc3ncnc(Nc4ccc(OCc5cccc(F)c5)c(Cl)c4)c3c2)o1 [Lapatinib] + Cn1cnc2c(F)c(Nc3ccc(Br)cc3Cl)c(C(=O)NOCCO)cc21 [Selumetinib] (first compound max 10 µM, 7x7, partner max 10 µM) | 0.565 | 0.464 | 0.731 | 0.5 | 0.151 | 0.482 | 0.352 | 0.52 | 0.24 | 0.684 |
| O=C(c1cc(Cc2n[nH]c(=O)c3ccccc23)ccc1F)N1CCN(C(=O)C2CC2)CC1 [Olaparib] + CC1(C)CCC(CN2CCN(c3ccc(C(=O)NS(=O)(=O)c4ccc(NCC5CCOCC5)c([N+](=O)[O-])c4)c(Oc4cnc5[nH]ccc5c4)c3)CC2)=C(c2ccc(Cl)cc2)C1 [Venetoclax] (first compound max 10 µM, 7x7, partner max 1 µM) | 0.114 | 0.251 | 0.786 | 0.243 | 0.235 | 0.18 | 0.277 | 0.146 | 0.207 | 0.462 |
| O=C(c1cc(Cc2n[nH]c(=O)c3ccccc23)ccc1F)N1CCN(C(=O)C2CC2)CC1 [Olaparib] + CN(CC[C@H](CSC1=CC=CC=C1)NC2=C(C=C(C=C2)S(=O)(=O)NC(=O)C3=CC=C(C=C3)N4CCC(CC4)[C@H](C5=CC=CC=C5C6=CC=C(C=C6)Cl)O)S(=O)(=O)C(F)(F)F)CCO [AZD4320] (first compound max 10 µM, 7x7, partner max 1 µM) | 0.171 | 0.183 | 0.944 | 0.251 | 0.299 | 0.19 | 0.308 | 0.242 | 0.473 | 0.511 |
| O=C(c1cc(Cc2n[nH]c(=O)c3ccccc23)ccc1F)N1CCN(C(=O)C2CC2)CC1 [Olaparib] + COc1nnc2ccc(N3CCC(c4ccc(OCCN5CCN(C)C(=O)[C@H]5C)cc4)CC3)nn12 [AZD5153] (first compound max 10 µM, 7x7, partner max 1 µM) | 0.314 | 0.546 | 0.746 | 0.376 | 0.367 | 0.571 | 0.316 | 0.361 | 0.373 | 0.774 |
| O=C(c1cc(Cc2n[nH]c(=O)c3ccccc23)ccc1F)N1CCN(C(=O)C2CC2)CC1 [Olaparib] + Cc1c2c(nn1C)CSCc1cc(n(C)n1)CSc1cc(c3ccccc3c1)OCCCc1c(C(=O)O)n(C)c3c-2c(Cl)ccc13 [AZD5991] (first compound max 10 µM, 7x7, partner max 1 µM) | 0.163 | 0.519 | 0.787 | 0.643 | 0.293 | 0.859 | 0.234 | 0.112 | 0.141 | 0.924 |
| Cc1nc(-c2cn3c(n2)-c2ccc(-c4cnn(C(C)(C)C(N)=O)c4)cc2OCC3)n(C(C)C)n1 [Taselisib] + O=C(Nc1ccc2[nH]nc(-c3ccncc3)c2c1)[C@@H]1CCN(CC(=O)N2CCN(c3ccc(-c4ncccn4)cc3)CC2)C1 [SCH772984] (first compound max 10 µM, 7x7, partner max 5 µM) | 0.971 | 0.702 | 0.999 | 0.428 | 0.24 | 0.722 | 0.469 | 0.818 | 0.475 | 0.976 |
| CC1(C)CCC(CN2CCN(c3ccc(C(=O)NS(=O)(=O)c4ccc(NCC5CCOCC5)c([N+](=O)[O-])c4)c(Oc4cnc5[nH]ccc5c4)c3)CC2)=C(c2ccc(Cl)cc2)C1 [Venetoclax] + CS(=O)(=O)CCNCc1ccc(-c2ccc3ncnc(Nc4ccc(OCc5cccc(F)c5)c(Cl)c4)c3c2)o1 [Lapatinib] (first compound max 1 µM, 7x7, partner max 10 µM) | 0.395 | 0.266 | 0.656 | 0.471 | 0.129 | 0.385 | 0.227 | 0.287 | 0.305 | 0.478 |
